Measurements published in paper PMC7071109, “Validation of an HPLC Method for the Simultaneous Quantification of Metabolic Reaction Products Catalysed by CYP2E1 Enzyme Activity: Inhibitory Effect of Cytochrome P450 Enzyme CYP2E1 by Salicylic Acid in Rat Liver Microsomes” (Molecules, 2020).

Molecular target: CYP2E1 (Rattus norvegicus, UniProt P05182)
Assay: inhibition of chlorzoxazone 6-hydroxylation in rat liver microsomes, HPLC
Format: biochemical

Chain of CYP2E1 (P05182 2-493): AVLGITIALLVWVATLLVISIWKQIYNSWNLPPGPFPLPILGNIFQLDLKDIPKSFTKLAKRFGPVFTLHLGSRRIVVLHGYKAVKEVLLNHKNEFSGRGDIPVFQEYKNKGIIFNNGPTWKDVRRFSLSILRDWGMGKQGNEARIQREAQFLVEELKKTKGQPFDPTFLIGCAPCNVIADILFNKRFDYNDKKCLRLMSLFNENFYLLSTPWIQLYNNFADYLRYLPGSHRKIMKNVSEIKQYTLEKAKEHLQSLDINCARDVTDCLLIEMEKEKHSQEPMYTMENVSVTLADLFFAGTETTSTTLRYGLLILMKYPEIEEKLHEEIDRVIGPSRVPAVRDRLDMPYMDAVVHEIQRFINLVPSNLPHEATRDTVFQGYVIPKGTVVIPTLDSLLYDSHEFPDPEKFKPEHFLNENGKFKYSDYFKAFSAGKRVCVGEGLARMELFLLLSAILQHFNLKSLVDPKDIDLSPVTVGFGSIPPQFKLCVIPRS

Work on `O=C(O)c1ccccc1O` [salicylic acid] yielded a Ki of 83.6 ± 2.73 µM.
